Test results from paper PMC3266667 (Frontiers in Pharmacology, 2012).
Like-named read-outs stand apart in the source and are kept apart here.

Target: hERG K+ channels (Homo sapiens, UniProt Q12809)
[1] = Patchliner, CHO-hERG cells, physiological temperature

Sequence of hERG K+ channels (Q12809 whole entry): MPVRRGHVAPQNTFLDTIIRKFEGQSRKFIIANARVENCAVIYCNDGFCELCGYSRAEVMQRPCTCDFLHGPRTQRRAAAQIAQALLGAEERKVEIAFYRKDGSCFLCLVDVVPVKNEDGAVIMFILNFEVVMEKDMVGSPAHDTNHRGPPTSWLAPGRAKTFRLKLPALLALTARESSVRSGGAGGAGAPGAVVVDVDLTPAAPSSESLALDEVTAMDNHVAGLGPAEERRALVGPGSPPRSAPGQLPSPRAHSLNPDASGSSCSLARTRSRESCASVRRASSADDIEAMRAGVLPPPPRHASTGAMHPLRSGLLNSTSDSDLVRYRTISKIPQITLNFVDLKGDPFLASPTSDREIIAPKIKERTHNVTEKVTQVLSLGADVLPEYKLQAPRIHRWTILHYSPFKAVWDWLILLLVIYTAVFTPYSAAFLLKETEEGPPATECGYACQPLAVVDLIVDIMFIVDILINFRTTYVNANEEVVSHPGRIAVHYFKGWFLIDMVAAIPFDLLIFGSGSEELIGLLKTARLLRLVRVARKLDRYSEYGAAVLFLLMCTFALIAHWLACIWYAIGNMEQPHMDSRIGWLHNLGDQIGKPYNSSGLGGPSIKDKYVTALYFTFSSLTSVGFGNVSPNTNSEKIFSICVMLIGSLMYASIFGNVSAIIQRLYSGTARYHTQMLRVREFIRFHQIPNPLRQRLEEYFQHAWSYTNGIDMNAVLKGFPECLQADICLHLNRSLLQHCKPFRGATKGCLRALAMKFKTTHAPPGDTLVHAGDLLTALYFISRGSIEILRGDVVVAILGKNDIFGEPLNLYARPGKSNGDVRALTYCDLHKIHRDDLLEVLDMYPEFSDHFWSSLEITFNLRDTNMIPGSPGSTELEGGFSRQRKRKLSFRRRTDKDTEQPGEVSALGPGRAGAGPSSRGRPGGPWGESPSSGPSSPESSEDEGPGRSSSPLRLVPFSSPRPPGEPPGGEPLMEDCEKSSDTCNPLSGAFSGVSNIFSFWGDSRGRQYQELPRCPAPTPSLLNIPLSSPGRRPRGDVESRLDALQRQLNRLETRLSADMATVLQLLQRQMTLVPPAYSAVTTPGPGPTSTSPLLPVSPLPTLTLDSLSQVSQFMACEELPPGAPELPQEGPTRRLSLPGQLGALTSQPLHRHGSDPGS

## COc1cc(N)c(Cl)cc1C(=O)NC1CCN(CCCOc2ccc(F)cc2)CC1OC (centres unmarked) [Cisapride]
human
  effect on the hERG current (in words): IC50 values in the low and mid-nanomolar range

## CC(C)NCC(O)c1ccc(NS(C)(=O)=O)cc1 (racemic) [D,L-Sotalol]
  effect on the hERG current (in words): intermediate effect on the hERG current

## Cc1cc2c(s1)Nc1ccccc1N=C2N1CCN(C)CC1 [Olanzapine]
  effect on the hERG current (in words): intermediate effect on the hERG current

## CC(C)Cc1ccc(C(C)C(=O)O)cc1 (centres unmarked) [Ibuprofen]
[1]
  effect on the hERG current (in words): did not affect the hERG current up to the highest concentration tested

## C[C@H](CS)C(=O)N1CCC[C@H]1C(=O)O [Captopril]
[1]
  effect on the hERG current (in words): did not affect the hERG current up to the highest concentration tested
